Legend:
Assay type in all cases: biochemical
[1] = biological target: AuroraB (h) (Homo sapiens, UniProt Q96GD4); test: Aurora-B human kinase inhibition, SPA; conditions: read-out: AuroraB pIC50 (converted)
Outline: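 AuroraB (0.5 μg/ml) phosphorylates 3 μM biotin-peptide using 0.5 μM ATP spiked with 33P-ATP in Hepes pH 7.5 with 3 mM MgCl2 and MnCl2, for 60 min at room temperature. EDTA stop solution carries streptavidin scintillant beads, and the captured radiolabel is imaged.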

[2] = biological target: PLK3 (h) (Homo sapiens, UniProt Q9H4B4); test: PLK3 human kinase inhibition, SPA; conditions: read-out: PLK3 pIC50 (converted)
Sequence of PLK3 (h) (Q9H4B4 whole entry): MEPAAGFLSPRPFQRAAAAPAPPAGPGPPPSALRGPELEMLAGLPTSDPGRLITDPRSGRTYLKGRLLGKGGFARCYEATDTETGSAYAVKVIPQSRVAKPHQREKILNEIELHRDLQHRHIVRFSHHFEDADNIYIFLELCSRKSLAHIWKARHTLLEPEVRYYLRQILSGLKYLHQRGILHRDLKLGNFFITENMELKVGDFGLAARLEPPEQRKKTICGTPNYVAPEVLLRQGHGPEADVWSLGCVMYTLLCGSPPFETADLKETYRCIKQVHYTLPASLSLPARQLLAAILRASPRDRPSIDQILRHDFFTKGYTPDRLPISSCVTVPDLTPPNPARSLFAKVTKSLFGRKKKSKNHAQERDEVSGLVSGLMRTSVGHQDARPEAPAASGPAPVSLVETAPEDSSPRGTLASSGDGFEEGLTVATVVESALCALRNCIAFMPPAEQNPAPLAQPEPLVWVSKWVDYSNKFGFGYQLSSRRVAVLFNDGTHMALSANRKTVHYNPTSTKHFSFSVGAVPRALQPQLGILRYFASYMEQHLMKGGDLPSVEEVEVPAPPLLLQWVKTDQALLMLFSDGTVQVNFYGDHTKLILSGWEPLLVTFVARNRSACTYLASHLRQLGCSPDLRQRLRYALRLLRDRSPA
Outline: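 Radiometric scintillation proximity format at pH 8.0 (Hepes, MnCl2, DTT). The 2 μM biotin-peptide substrate is phosphorylated by PLK3 (h) (30 μg/ml) using 0.1 μM ATP traced with 33P, for 20 min at room temperature. EDTA stop; phosphopeptide captured on streptavidin beads and imaged.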

[3] = biological target: CDK1/CyclinB (h) (Homo sapiens, UniProt P06493); test: CDK1/CyclinB human kinase inhibition, Invitrogen's FRET assay (Z'lyte); conditions: read-out: CDK1 pIC50 (converted)
Sequence of CDK1/CyclinB (h) (P06493 whole entry): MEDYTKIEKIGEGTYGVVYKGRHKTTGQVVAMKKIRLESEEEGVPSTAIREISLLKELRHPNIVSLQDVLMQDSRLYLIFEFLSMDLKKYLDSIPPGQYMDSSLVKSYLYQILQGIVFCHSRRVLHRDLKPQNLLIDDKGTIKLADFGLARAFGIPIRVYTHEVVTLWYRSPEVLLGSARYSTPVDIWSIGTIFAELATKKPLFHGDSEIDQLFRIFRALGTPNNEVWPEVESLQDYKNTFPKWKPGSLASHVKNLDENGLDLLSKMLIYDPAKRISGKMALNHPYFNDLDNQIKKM
Sequence of CDK1/CyclinB (h) (P14635 whole entry partner): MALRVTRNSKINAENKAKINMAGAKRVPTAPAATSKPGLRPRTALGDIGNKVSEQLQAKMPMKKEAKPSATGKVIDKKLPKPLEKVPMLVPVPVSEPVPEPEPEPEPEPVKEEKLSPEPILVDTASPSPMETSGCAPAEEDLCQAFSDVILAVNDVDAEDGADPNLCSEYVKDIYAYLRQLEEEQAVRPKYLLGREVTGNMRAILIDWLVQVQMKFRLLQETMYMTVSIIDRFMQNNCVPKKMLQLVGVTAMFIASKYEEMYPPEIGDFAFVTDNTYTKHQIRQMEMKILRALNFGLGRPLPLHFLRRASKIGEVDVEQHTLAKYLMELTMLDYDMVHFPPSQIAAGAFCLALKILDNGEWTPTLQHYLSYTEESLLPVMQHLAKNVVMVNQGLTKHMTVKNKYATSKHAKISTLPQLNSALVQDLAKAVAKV
Outline: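 Read-out is the 460 nm/538 nm emission ratio (390 nm excitation) after a 60 min protease development step. Before that, 10 μM ATP and 2 μM Z'lyte Ser/Thr peptide 12 react 60 min at room temperature with 0.2 μg/ml human CDK1/CyclinB in Hepes pH 7.5 containing MgCl2, EGTA and Brij-35.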

Sequence of AuroraB (h) (Q96GD4 whole entry): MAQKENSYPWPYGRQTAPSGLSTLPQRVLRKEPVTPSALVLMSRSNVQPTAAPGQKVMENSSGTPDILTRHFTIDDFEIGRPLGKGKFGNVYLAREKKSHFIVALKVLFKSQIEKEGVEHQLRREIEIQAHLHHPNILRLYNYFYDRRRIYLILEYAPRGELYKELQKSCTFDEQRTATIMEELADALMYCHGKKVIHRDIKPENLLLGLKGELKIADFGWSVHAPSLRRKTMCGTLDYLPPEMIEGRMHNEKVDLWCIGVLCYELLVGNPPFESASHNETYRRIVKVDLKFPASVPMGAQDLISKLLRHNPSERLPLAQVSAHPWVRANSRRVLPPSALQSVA

| Structure (SMILES) | IC50 [1] | IC50 [2] | IC50 [3] |
| --- | --- | --- | --- |
| COc1ccc2cc1CN(C)CCNC(=O)[C@H](CO)NCc1cc(cc(N3CCOCC3)c1)Nc1nccc-2n1 [Compound 105] | 4.79 µM | > 10 µM | > 10 µM |
| COc1cc2cc(c1)Nc1nccc(n1)-c1ccc(OC)c(c1)CN(C)CCNC(=O)[C@H](CO)NC2 [Compound 107] | 2.04 µM | > 10 µM | > 10 µM |
| COc1cc2cc(c1)Nc1nccc(n1)-c1ccc(cc1)CN(C)CCNC(=O)[C@H](CO)NC2 [Compound 109] | 7.41 µM | > 10 µM | > 10 µM |
| CN1CCNC(=O)[C@H](CO)NCc2cccc(c2)Nc2nccc(n2)-c2ccc(cc2)C1 [Compound 114] | 7.08 µM | > 10 µM | > 10 µM |
| COc1ccc2cc1CN(C)CCCNC(=O)[C@H](CO)NCc1cccc(c1)Nc1nccc-2n1 [Compound 118] | 6.61 µM | > 10 µM | > 10 µM |
| COc1ccc2cc1CN(C)CCNC(=O)[C@H](CO)NCc1cc(Br)cc(c1)Nc1nccc-2n1 [Compound 119] | > 10 µM | > 10 µM | > 10 µM |
| O=C1NCc2cccc(c2)-c2ccnc(n2)Nc2cccc(c2)CN2CCC1CC2 [Compound 124] | > 10 µM | > 10 µM | 0.372 µM |
| COc1cc2cc(c1)Nc1nccc(n1)-c1ccc(OC)c(c1)CN(C)CCNC(=O)CN1CCN(CC1)C2 [Compound 127] | 2 µM | > 10 µM | > 10 µM |
| CC(C)Nc1cc2cc(c1)Nc1nccc(n1)-c1ccc(cc1)CN(C)CCCNC(=O)CN1CCN(CC1)C2 [Compound 131] | > 10 µM | > 10 µM | > 10 µM |
| COc1cc2cc(c1)Nc1nccc(n1)-c1ccc(cc1)CN(C)CCNC(=O)CN1CCN(CC1)C2 [Compound 132] | > 10 µM | > 10 µM | > 10 µM |
| CN1CCNC(=O)CN2CCN(CC2)Cc2cccc(c2)Nc2nccc(n2)-c2ccc(cc2)C1 [Compound 134] | > 10 µM | > 10 µM | 4.79 µM |
| COc1ccc2cc1CN(C)CCNC(=O)CN1CCN(CC1)Cc1cc(NCCc3ccccc3)cc(c1)Nc1nccc-2n1 [Compound 138] | > 10 µM | > 10 µM | > 10 µM |
| COc1cc2cc(c1)Nc1nccc(n1)-c1ccc(OC)c(c1)CN(C)CCCNC(=O)CN1CCN(CC1)C2 [Compound 140] | > 10 µM | > 10 µM | > 10 µM |
| O=C1NCc2cc(ccc2N2CCOCC2)Nc2nccc(n2)-c2cccc(c2)CCCN2CCC[C@@H]12 [Compound 149] | 11 µM | > 10 µM | 0.00363 µM |
| CC(C)Nc1cc2cc(c1)Nc1nccc(n1)-c1ccc(cc1)CN(C)CCCNC(=O)[C@@H]1CCCN1C2 [Compound 151] | > 10 µM | > 10 µM | > 10 µM |
| COc1ccc2cc1CN(C)CCNC(=O)[C@@H]1CCCN1Cc1cc(cc(N3CCOCC3)c1)Nc1nccc-2n1 [Compound 152] | 7.94 µM | > 10 µM | > 10 µM |
| CN1CCNC(=O)[C@@H]2CCCN2Cc2cc(cc(N3CCOCC3)c2)Nc2nccc(n2)-c2ccc(cc2)C1 [Compound 154] | > 10 µM | > 10 µM | > 10 µM |
| COc1cc2cc(c1)Nc1nccc(n1)-c1ccc(cc1)CN(C)CCCNC(=O)[C@@H]1CCCN1C2 [Compound 156] | > 10 µM | 8.51 µM | > 10 µM |
| O=C1NCCNCc2ccc(cc2)-c2ccnc(n2)Nc2ccc(N3CCOCC3)c(c2)CN2CCC[C@@H]12 [Compound 157] | 9.55 µM | 9.55 µM | > 10 µM |
| COc1cc2cc(c1)Nc1nccc(n1)-c1ccc(cc1)CN(C)CCNC(=O)[C@@H]1CCCN1C2 [Compound 158] | > 10 µM | 7.08 µM | 8.71 µM |
| CN1CCNC(=O)[C@@H]2CCCN2Cc2cccc(c2)Nc2nccc(n2)-c2ccc(cc2)C1 [Compound 160] | > 10 µM | 9.33 µM | > 10 µM |

| Structure (SMILES) | IC50 [1] | IC50 [2] | IC50 [3] |
| --- | --- | --- | --- |
| COc1cc2cc(c1)Nc1nccc(n1)-c1ccc(OC)c(c1)CN(C)CCNC(=O)[C@@H]1CCCN1C2 [Compound 162] | 6.61 µM | > 10 µM | > 10 µM |
| COc1ccc2cc1CN(C)CCNC(=O)[C@@H]1CCCN1Cc1cc(NCCc3ccccc3)cc(c1)Nc1nccc-2n1 [Compound 163] | > 10 µM | > 10 µM | > 10 µM |
| COc1ccc2cc1CN(C)CCNC(=O)[C@@H]1CCCN1Cc1cc(cc(NC(C)C)c1)Nc1nccc-2n1 [Compound 165] | > 10 µM | > 10 µM | > 10 µM |
| COc1ccc2cc1CN(C)CCCNC(=O)[C@@H]1CCCN1Cc1cc(NCCc3ccccc3)cc(c1)Nc1nccc-2n1 [Compound 167] | > 10 µM | > 10 µM | > 10 µM |
| CN1CCN(C)c2ccc(cn2)-c2ccnc(n2)Nc2cc(c3c(c2)OCO3)CN2CCC[C@H]2C1=O [Compound 168] | 2.57 µM | > 10 µM | 8.13 µM |
| COc1cc2cc(c1)Nc1nccc(n1)-c1ccc(OC)c(c1)CN(C)CCCNC(=O)[C@@H]1CCCN1C2 [Compound 171] | > 10 µM | > 10 µM | > 10 µM |
| COc1ccc2cc1CN(C)CCNC(=O)[C@@H]1CCCN1Cc1cc(C#N)cc(c1)Nc1nccc-2n1 [Compound 181] | > 10 µM | > 10 µM | > 10 µM |
| C[C@@H]1NCc2cc(ccc2N2CCOCC2)Nc2nccc(n2)-c2cccc(c2)CNC1=O [Compound 182] | > 10 µM | > 10 µM | 7.59 µM |
| C[C@@H]1NCc2cccc(c2)Nc2nccc(n2)-c2cccc(c2)CNC1=O [Compound 184] | > 10 µM | > 10 µM | 0.398 µM |
| O=C1NCc2cccc(c2)-c2ccnc(n2)Nc2cccc(c2)CN[C@H]1Cc1ccccc1 [Compound 185] | > 10 µM | > 10 µM | 4.79 µM |
| C[C@@H]1NCc2ccc(Cl)c(c2)Nc2nccc(n2)-c2cccc(c2)CNC1=O [Compound 186] | > 10 µM | > 10 µM | > 10 µM |
| O=C1NCc2cccc(c2)-c2ccnc(n2)Nc2cccc(c2)CN[C@H]1CO [Compound 187] | > 10 µM | > 10 µM | 0.646 µM |
| O=C1NCc2cccc(c2)-c2ccnc(n2)Nc2cc(ccc2Cl)CN[C@H]1CO [Compound 188] | > 10 µM | > 10 µM | 9.12 µM |
| O=C1NCc2cccc(c2)-c2ccnc(n2)Nc2cc(ccc2Cl)CN[C@H]1Cc1ccccc1 [Compound 189] | > 10 µM | > 10 µM | 5.62 µM |
| C[C@@H]1NCc2ccc(cc2)Nc2nccc(n2)-c2cccc(c2)CNC1=O [Compound 190] | > 10 µM | > 10 µM | 6.46 µM |
| O=C1NCc2cccc(c2)-c2ccnc(n2)Nc2ccc(cc2)CN[C@H]1Cc1ccccc1 [Compound 192] | > 10 µM | > 10 µM | > 10 µM |
| O=C1CN2CCN(CC2)Cc2ccc(cc2)Nc2nccc(n2)-c2cccc(c2)CN1 [Compound 193] | > 10 µM | > 10 µM | > 10 µM |
| O=C1CN2CCN(CC2)Cc2cc(ccc2N2CCOCC2)Nc2nccc(n2)-c2ccc(cc2)CN1 [Compound 194] | > 10 µM | > 10 µM | > 10 µM |
| O=C1CN2CCN(CC2)Cc2ccc(Cl)c(c2)Nc2nccc(n2)-c2cccc(c2)CN1 [Compound 195] | > 10 µM | > 10 µM | > 10 µM |
| O=C1CN2CCN(CC2)Cc2cccc(c2)Nc2nccc(n2)-c2cccc(c2)CN1 [Compound 196] | > 10 µM | > 10 µM | > 10 µM |
